Entries after “also recorded” stand apart in the source; their conditions may differ.
Columns and labels:
AdV = experiment: microbe, parasite or virus in culture; type: cell-based; settings: unidentified adenovirus, A549 cells
BKV = experiment: qPCR assay for BKV; type: cell-based, BK virus; settings: Betapolyomavirus hominis, HFF cells
Method: qPCR Assays for BKV and JCV:
Primary assays for BK virus were performed in 96-well plates containing monolayers of HFF cells. Compound dilutions were prepared in plates containing cells which were subsequently infected at with the Gardner strain of BK virus. After a 7 d incubation, total DNA was prepared with a purification kit and genome copy number was quantified by real time PCR. Compounds that were positive in this assay were confirmed in a similar assay in 96-well plates with the compounds added 1 h […] to identify compounds that inhibit early stages of replication including adsorption and penetration. Genome copy number was determined by methods described above.
Primary assays for BK virus were performed in 96-well plates containing monolayers of HFF cells. Compound dilutions were prepared in plates containing cells which were subsequently infected at with the Gardner strain of BK virus. After a 7 d incubation, total DNA was prepared with a Wizard SV 96 well purification kit and genome copy number was quantified by real time PCR using the primers 5′-[…]-3′ (SEQ ID No. 8) , 5′-[…]-3′ (SEQ ID No. 9) and probe 5-6-FAM […]-3′ (SEQ ID No. 10) . Plasmid pMP526 served as the DNA standard for quantitation purposes. […] Genome copy number was determined by methods described above.

VACV = experiment: microbe, parasite or virus in culture; type: cell-based; settings: Orthopoxvirus vaccinia, HFF
DENV-2 = experiment: microbe, parasite or virus in culture; type: cell-based; settings: Dengue virus, DENV2, Vero 76; DENV-2, Vero76 cells
ENTV-71 = experiment: microbe, parasite or virus in culture; type: cell-based; settings: Enterovirus, Vero 76; ENTV-71, Vero76 cells
Flu (H1N1) = experiment: microbe, parasite or virus in culture; type: cell-based; settings: Influenza A virus, MDCK cells
SARS = experiment: organism not typed; type: cell-based, SARS CoV; settings: Vero 76
RVFV = experiment: microbe, parasite or virus in culture; type: cell-based; settings: Rift Valley fever virus, Vero 76
[1] = Cytotoxicity in lymphocyte assays, BCBL-1 cells; type: cell-based; settings: human, parallel to HHV-8 assay
Method: (§1) Every antiviral assay included a parallel cytotoxicity assay with the same cells used for each virus, the same cell number, the same drug concentrations, and the same incubation times to provide the same drug exposure. To ensure that the cytotoxicity of all compounds could be compared directly, a standard neutral red uptake cytotoxicity assay for all compounds in confluent HFF cells with a 7 d incubation period was performed.
Cytotoxicity in Lymphocyte Assays:
Cell viability in all assays with lymphocytes was assessed with a luminescent Cell Viability Assay. Briefly, assay plates were incubated at ambient temperature for 30 min then luminescent reagent was added to each well and the plates were mixed to lyse the cells. Plates were then incubated for at ambient temperature and the luminescence was quantified on a luminometer. Standard methods were used to calculate drug concentrations that inhibited the proliferation of cells by 50% (CC50).
Cell viability in all assays with lymphocytes was assessed with the CellTiter-Glo Luminescent Cell Viability Assay (Promega). […] Plates were then incubated for an additional 10 min at ambient temperature and the luminescence was quantified on a luminometer. […]

[2] = Parallel cytotoxicity assay in 293TT cells; type: cell-based; settings: human, parallel to JCV assay
Method: as §1

[3] = tested on: murine norovirus (MNV) CR3; experiment: Study No. 1: efficacy against Murine Norovirus infection in mice; type: in vivo, BALB/c mice; settings: for murine norovirus titer in tissue and feces: 30, 100, 300 mg/kg/day BID oral gavage from day −2, 10^6 PFU, day 3 post-infection
Method: Study No. 1 evaluated the efficacy of twice-daily dosing of Compound 1 over a range of 30 mg/kg to 300 mg/kg, initiated prior to infection of mice with 10^6 plaque-forming units (PFU) of murine norovirus (MNV) CR3. A control group of mice treated with vehicle was also included. All doses were started 2 days (39 hours) prior to infection.
Compound was delivered twice daily at indicated doses via oral gavage. A control group of mice treated with vehicle only was also included. Mice were infected with murine norovirus by pipetting virus into mouth 2 days after the first dose. Mice were housed on metal grates and combined fecal output was collected every 24 hours. Tissues (distal ileum and cecum) and individual fecal pellets were harvested on day 3 post inoculation. All samples were titered by plaque assay.
(§2) For both studies, compound was delivered via oral gavage at the indicated doses and times prior to infection. Mice were infected with murine norovirus CR3 by pipetting virus into mouth 3 hours after the first day 0 dose of Compound 1 was given. Following infection, compound was administered twice daily through day 3 post-infection.
The mice used were ˜20 gram, 8-12 week old female BALB/c mice in groups of 5. Mice were housed on metal grates and combined fecal output was collected every 24 hours, starting at day −1. Tissues (˜1 cm of distal ileum and cecum) and individual fecal pellets were harvested on day 3 post-infection and weighed. All samples were titered by plaque assay (qRT-PCR as back-up when titers are too low); titers were normalized to gram of tissue or feces. On day 3, duplicate samples of tissue (˜1 cm of distal ileum and cecum) were collected, rinsed in PBS, and snap frozen; serum and a duplicate feces sample were also collected on day 3 and snap frozen; this set of sample was submitted for MS analysis to assess drug bioavailability.

[4] = tested on: murine norovirus (MNV) CR3; experiment: Study No. 2: efficacy against Murine Norovirus infection in mice; type: in vivo, BALB/c mice; settings: twice daily 300 mg/kg starting 2 days prior to infection, 10^4 PFU
Method: Study No. 2 evaluated the efficacy of twice-daily dosing of Compound 1 at 150 mg/kg or 300 mg/kg, initiated prior to infection of mice with 10^4 pfu of MNV CR3. A control group of mice treated with vehicle was also included. The 150 mg/kg dose was started either 2 days (39 hours) prior to inoculation, 1 day (15 hours) prior to inoculation, or on the day of (3 hours prior to) inoculation; the 300 mg/kg dose was started 2 days (39 hours) prior to infection.
This study tested the ability of Compound 1 to protect mice from or reduce murine norovirus infection. Compound was delivered twice daily at indicated doses via oral gavage starting 2 days prior to inoculation, 1 day prior to inoculation or at time of inoculation. A control group of mice treated with vehicle only was also included. Mice were infected with 10^4 PFU of murine norovirus by pipetting virus into mouth 3 hours after the Day 0 dose. All samples were titered by plaque assay.
as §2
The mice used were ˜20 gram, 8-12 week old female BALB/c mice in groups of 5. […]

in vitro = settings: human

Cc1nc(N)c2c(C(N)=O)cn([C@@H]3O[C@H](CO)[C@@H](O)[C@H]3O)c2n1 [Compound 1, 4-amino-7-((2R,3R,4S,5R)-3,4-dihydroxy-5-(hydroxymethyl)tetrahydrofuran-2-yl)-2-methyl-7H-pyrrolo[2,3-d]pyrimidine-5-carboxamide]
EC50 (AdV): > 100 µM
EC50 (BKV): > 60 µM
EC50 (VACV): 56.2 µM
EC50 (DENV-2): > 100 µM
EC50 (ENTV-71): > 100 µM
EC50 (Flu (H1N1)): > 100 µM
EC50 (SARS): 37 µM
EC50 (RVFV): > 100 µM
CC50 [1]: 46.8 µM
CC50 [2]: > 60 µM
murine norovirus titer in tissue and feces [3]: effective in reducing the titer of murine norovirus in both tissue and feces
murine norovirus titer in tissue and feces ([3]; listed as compound 1): reduce the viral load in mice infected with murine norovirus in a dose-dependent manner; also recorded: showed a reduction in PFU/gram with increasing dose
virus titer in tissue and feces compared with vehicle ([3]; twice-daily 300 mg/kg): significant reduction in virus titer
murine norovirus titer in tissue and feces [4]: significantly reduces murine norovirus titer both in tissue and feces
CC50 (in vitro): > 60 µM
